The results in this text go back to the supplement of paper PMC10331698.

Common to all, as to test: level (log10 ratio to DMSO vehicle control); higher = higher biomarker level / cell amount than vehicle control
Holding throughout (details): in DMSO

Compound in one experiment: O=C(O)C(F)(F)C(F)(F)C(F)(F)C(F)(F)F [Perfluoropentanoic acid]
The procedure: (§1)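 BioMAP Diversity Plus panel of 12 human primary cell co-culture systems (3C, 4H, LPS, SAg, BT, BF4T, BE3C, CASM3C, HDF3CGF, KF3CT, MyoF, Mphg). Compounds were added 1 h before stimulation and left for 24 h (MyoF 48 h; BT 72 h for soluble read-outs or 6 d for IgG). Biomarkers were read by ELISA, cytotoxicity by SRB, PBMC viability and proliferation by Alamar Blue. Each well value was divided by the mean of 8 DMSO control wells on the same plate and log10 transformed; duplicate blinded samples were tested at 4 concentrations.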

Compound in experiment [1]: O=C(O)C(F)(F)C(F)(F)OC(F)(F)F [Perfluoro-3-methoxypropanoic acid]
As to the method: as §1

Compound in experiment [2]: O=S(=O)(O)C(F)(F)C(F)(F)C(F)(F)C(F)(F)C(F)(F)C(F)(F)F [Perfluorohexanesulfonic acid]
As to the method: as §1

Compound in experiment [3]: OCC(F)(F)OC(F)(F)C(F)(F)OC(F)(F)CO [1H,1H,8H,8H-Perfluoro-3,6-dioxaoctane-1,8-diol]
The procedure:
as §1

Compound in experiment [4]: C=CC(F)(F)C(F)(F)C(F)(F)C(F)(F)C(F)(F)C(F)(F)C(F)(F)C(F)(F)C=C [1,8-Divinylperfluorooctane]
The procedure: as §1

Compound in experiment [5]: OCCC(F)(F)C(F)(F)C(F)(F)C(F)(F)C(F)(F)C(F)(F)F [6:2 Fluorotelomer alcohol]
As to the method:
as §1

Compound in the next experiment: O=C(O)C(F)(F)C(F)(F)C(F)(F)C(F)(F)C(F)(F)C(F)(F)C(F)(F)C(F)(F)C(F)(F)F [Perfluorodecanoic acid]
The procedure:
as §1

± gives the standard deviation of the averaged measurements.

Consider SAg:CD40, for which the “level (log10)” value with Perfluoropentanoic acid (6700 nM) was 0.0105 ± 0.005; in the experiment with Perfluoropentanoic acid (20000 nM), 0.0025 ± 0.0064; with Perfluoropentanoic acid (60000 nM), -0.001 ± 0.025; in experiment [1] (6700 nM), 0.013 ± 0.0071; in experiment [1] (20000 nM), 0.01 ± 0.0042; in experiment [1] (60000 nM) it was -0.0055 ± 0.019. The “level (log10)” value was 0.001 ± 0.0071 in experiment [2] (6700 nM); -0.012 ± 0.0099 in experiment [2] (20000 nM); -0.029 ± 0.011 in experiment [2] (60000 nM); -0.003 ± 0.0057 in experiment [3] (6700 nM); 0.0095 ± 0.013 in experiment [3] (20000 nM); 0.004 ± 0.0042 in experiment [3] (60000 nM). For the same test system, the “level (log10)” value is 0.0085 ± 0.015 in experiment [4] (6700 nM); -0.022 ± 0.0028 in experiment [4] (20000 nM); -0.003 ± 0.0085 in experiment [5] (6700 nM); 0.0005 ± 0.0021 in experiment [5] (20000 nM); -0.0095 ± 0.021 with Perfluorodecanoic acid (6700 nM); -0.0305 ± 0.012 with Perfluorodecanoic acid (20000 nM).
On to SAg:CD62E/E-Selectin, for which the “level (log10)” value in the experiment with Perfluoropentanoic acid (6700 nM) is 0.0005 ± 0.0064; with Perfluoropentanoic acid (20000 nM), -0.012 ± 0.013; with Perfluoropentanoic acid (60000 nM) it was 0.0195 ± 0.025; in experiment [1] (6700 nM), 0.004 ± 0.0099; in experiment [1] (20000 nM), -0.01 ± 0.018; in experiment [1] (60000 nM) it was -0.016 ± 0.018. Moreover, the “level (log10)” value was -0.0115 ± 0.00071 in experiment [2] (6700 nM); -0.008 ± 0.02 in experiment [2] (20000 nM); 0.0405 ± 0.0064 in experiment [2] (60000 nM); -0.0135 ± 0.0064 in experiment [3] (6700 nM); -0.0185 ± 0.0064 in experiment [3] (20000 nM); 0.0125 ± 0.044 in experiment [3] (60000 nM). Also, the “level (log10)” value in experiment [4] (6700 nM) is -0.0205 ± 0.012; in experiment [4] (20000 nM) it was -0.0195 ± 0.005; in experiment [5] (6700 nM), -0.0015 ± 0.0092; in experiment [5] (20000 nM), 0.002 ± 0.027; with Perfluorodecanoic acid (6700 nM) it was 0.0005 ± 0.015; with Perfluorodecanoic acid (20000 nM), 0.0165 ± 0.023.
In the case of SAg:CD69, the “level (log10)” value with Perfluoropentanoic acid (6700 nM) is 0.002 ± 0.016; with Perfluoropentanoic acid (20000 nM) it was -0.0155 ± 0.028; in the experiment with Perfluoropentanoic acid (60000 nM), -0.0165 ± 0.033; in experiment [1] (6700 nM), 0.0005 ± 0.00071; in experiment [1] (20000 nM), 0.0225 ± 0.011; in experiment [1] (60000 nM) it was -0.0005 ± 0.018. Besides, the “level (log10)” value in experiment [2] (6700 nM) is -0.0235 ± 0.00071; in experiment [2] (20000 nM), -0.0175 ± 0.012; in experiment [2] (60000 nM), -0.06 ± 0.0014; in experiment [3] (6700 nM) it was 0.0065 ± 0.0064; in experiment [3] (20000 nM) it was 0.015 ± 0.016; in experiment [3] (60000 nM), -0.0145 ± 0.013. The “level (log10)” value was -0.042 ± 0.021 in experiment [4] (6700 nM); -0.012 ± 0.035 in experiment [4] (20000 nM); 0.012 ± 0.025 in experiment [5] (6700 nM); -0.012 ± 0.016 in experiment [5] (20000 nM); -0.0335 ± 0.015 with Perfluorodecanoic acid (6700 nM); -0.062 ± 0.0057 in the experiment with Perfluorodecanoic acid (20000 nM).
As to SAg:CXCL8/IL-8, the “level (log10)” value in the experiment with Perfluoropentanoic acid (6700 nM) was -0.012 ± 0.041; in the experiment with Perfluoropentanoic acid (20000 nM), -0.018 ± 0.044; with Perfluoropentanoic acid (60000 nM) it was -0.013 ± 0.088; in experiment [1] (6700 nM), 0.021 ± 0.0028; in experiment [1] (20000 nM), -0.017 ± 0.034; in experiment [1] (60000 nM), 0.0095 ± 0.04. In addition, the “level (log10)” value was 0.0185 ± 0.012 in experiment [2] (6700 nM); 0.019 ± 0.018 in experiment [2] (20000 nM); 0.107 ± 0.04 in experiment [2] (60000 nM); 0.0115 ± 0.022 in experiment [3] (6700 nM); -0.005 in experiment [3] (20000 nM); 0.014 ± 0.044 in experiment [3] (60000 nM). Further, the “level (log10)” value is -0.0315 ± 0.013 in experiment [4] (6700 nM); 0.006 ± 0.05 in experiment [4] (20000 nM); -0.0035 ± 0.011 in experiment [5] (6700 nM); 0.0035 ± 0.0021 in experiment [5] (20000 nM); -0.0325 ± 0.03 with Perfluorodecanoic acid (6700 nM); -0.064 ± 0.038 with Perfluorodecanoic acid (20000 nM).
Turning to SAg:CXCL9/MIG, the “level (log10)” value is -0.0115 ± 0.0078 in the experiment with Perfluoropentanoic acid (6700 nM); -0.014 ± 0.0099 in the experiment with Perfluoropentanoic acid (20000 nM); 0.004 ± 0.021 in the experiment with Perfluoropentanoic acid (60000 nM); 0.001 ± 0.0057 in experiment [1] (6700 nM); 0.006 ± 0.0042 in experiment [1] (20000 nM); -0.002 ± 0.0099 in experiment [1] (60000 nM). For the same test system, the “level (log10)” value in experiment [2] (6700 nM) was 0.004; in experiment [2] (20000 nM) it was -0.005 ± 0.0057; in experiment [2] (60000 nM) it was 0.0035 ± 0.0078; in experiment [3] (6700 nM) it was 0.0075 ± 0.0021; in experiment [3] (20000 nM) it was 0 ± 0.0014; in experiment [3] (60000 nM), 0.0065 ± 0.0092. Also, the “level (log10)” value in experiment [4] (6700 nM) is -0.0115 ± 0.0092; in experiment [4] (20000 nM), 0.0055 ± 0.018; in experiment [5] (6700 nM), -0.0095 ± 0.0021; in experiment [5] (20000 nM) it was -0.0055 ± 0.00071; in the experiment with Perfluorodecanoic acid (6700 nM) it was -0.006 ± 0.011; with Perfluorodecanoic acid (20000 nM), -0.0025 ± 0.015.
On to SAg:PBMC Cytotoxicity, for which the “level (log10)” value with Perfluoropentanoic acid (6700 nM) is -0.0105 ± 0.023; in the experiment with Perfluoropentanoic acid (20000 nM), -0.0135 ± 0.012; with Perfluoropentanoic acid (60000 nM), 0.0145 ± 0.022; in experiment [1] (6700 nM), 0.034 ± 0.014; in experiment [1] (20000 nM) it was 0.016 ± 0.013; in experiment [1] (60000 nM), -0.0115 ± 0.011. Moreover, the “level (log10)” value was -0.025 ± 0.0042 in experiment [2] (6700 nM); -0.0175 ± 0.026 in experiment [2] (20000 nM); 0.0085 ± 0.012 in experiment [2] (60000 nM); 0.0055 ± 0.005 in experiment [3] (6700 nM); 0.028 ± 0.089 in experiment [3] (20000 nM); -0.033 ± 0.0042 in experiment [3] (60000 nM). For the same test system, the “level (log10)” value in experiment [4] (6700 nM) worked out at 0.017 ± 0.025; in experiment [4] (20000 nM), 0.0425 ± 0.00071; in experiment [5] (6700 nM), 0.0025 ± 0.005; in experiment [5] (20000 nM), 0.023 ± 0.028; with Perfluorodecanoic acid (6700 nM), 0.032 ± 0.0028; with Perfluorodecanoic acid (20000 nM), 0.0625 ± 0.061.
Take SAg:Proliferation: the “level (log10)” value in the experiment with Perfluoropentanoic acid (6700 nM) was -0.0195 ± 0.04; with Perfluoropentanoic acid (20000 nM), 0.0205 ± 0.046; with Perfluoropentanoic acid (60000 nM), 0.0175 ± 0.08; in experiment [1] (6700 nM) it was -0.0075 ± 0.035; in experiment [1] (20000 nM) it was -0.015 ± 0.033; in experiment [1] (60000 nM) it was 0.0005 ± 0.026. In addition, the “level (log10)” value in experiment [2] (6700 nM) is -0.0215 ± 0.016; in experiment [2] (20000 nM), 0.0015 ± 0.0064; in experiment [2] (60000 nM), 0.021 ± 0.024; in experiment [3] (6700 nM), -0.025 ± 0.013; in experiment [3] (20000 nM), -0.0195 ± 0.023; in experiment [3] (60000 nM), -0.0055 ± 0.015. In addition, the “level (log10)” value in experiment [4] (6700 nM) was 0.0155 ± 0.0064; in experiment [4] (20000 nM), 0.0455 ± 0.013; in experiment [5] (6700 nM) it was -0.015 ± 0.027; in experiment [5] (20000 nM), -0.024 ± 0.013; with Perfluorodecanoic acid (6700 nM), 0.0435 ± 0.019; with Perfluorodecanoic acid (20000 nM) it was 0.0255 ± 0.032.
As for SAg:SRB, the “level (log10)” value with Perfluoropentanoic acid (6700 nM) is -0.007 ± 0.0099; in the experiment with Perfluoropentanoic acid (20000 nM), -0.0035 ± 0.00071; in the experiment with Perfluoropentanoic acid (60000 nM) it was 0.0055 ± 0.015; in experiment [1] (6700 nM), -0.0025 ± 0.0078; in experiment [1] (20000 nM), -0.0005 ± 0.0021; in experiment [1] (60000 nM) it was -0.0045 ± 0.0064. For the same test system, the “level (log10)” value was -0.019 ± 0.0085 in experiment [2] (6700 nM); -0.018 ± 0.0042 in experiment [2] (20000 nM); -0.033 ± 0.03 in experiment [2] (60000 nM); -0.0115 ± 0.012 in experiment [3] (6700 nM); -0.0195 ± 0.0092 in experiment [3] (20000 nM); -0.0195 ± 0.016 in experiment [3] (60000 nM). Further, the “level (log10)” value in experiment [4] (6700 nM) is -0.0005 ± 0.0021; in experiment [4] (20000 nM), 0.0135 ± 0.0021; in experiment [5] (6700 nM), -0.003 ± 0.027; in experiment [5] (20000 nM) it was 0 ± 0.02; with Perfluorodecanoic acid (6700 nM), -0.0035 ± 0.012; with Perfluorodecanoic acid (20000 nM), -0.008 ± 0.013.
